According to ChEMBL document CHEMBL1201862, “PubChem BioAssay data set” (2004):
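Protocol summary: plate cells (96-well), add compound at 5 concentrations, incubate 48 h, interpolate endpoints linearly. GI50 = concentration required for 50% inhibition of growth.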 Calls of active or inactive are those of the source. No stated cut-off is given here; in the data, active = GI50 up to about 1.1 µM and inactive = higher.

Tests used:
Experiment in all cases: inhibition of tumour cell growth, NCI panel, 48 h
LOX IMVI = tested on: LOX IMVI
SK-MEL-28 = tested on: SK-MEL-28
SNB-75 = tested on: SNB-75
OVCAR-8 = tested on: OVCAR-8
M14 = tested on: M14
SK-MEL-2 = tested on: SK-MEL-2
MDA-N = tested on: MDA-N
HCT-116 = tested on: HCT-116
OVCAR-4 = tested on: OVCAR-4
COLO 205 = tested on: COLO 205
HOP-62 = tested on: HOP-62
NCI-H23 = tested on: NCI-H23
NCI/ADR-RES = tested on: NCI/ADR-RES
HCC 2998 = tested on: HCC 2998
MOLT-4 = tested on: MOLT-4
MCF7 = tested on: MCF7
U-251 = tested on: U-251
NCI-H460 = tested on: NCI-H460
DMS-273 = tested on: DMS-273
DLD-1 = tested on: DLD-1

| SMILES | GI50 (LOX IMVI) | GI50 (SK-MEL-28) | GI50 (SNB-75) | GI50 (OVCAR-8) | GI50 (M14) | GI50 (SK-MEL-2) | GI50 (MDA-N) | GI50 (HCT-116) | GI50 (OVCAR-4) | GI50 (COLO 205) | GI50 (HOP-62) | GI50 (NCI-H23) | GI50 (NCI/ADR-RES) | GI50 (HCC 2998) | GI50 (MOLT-4) | GI50 (MCF7) | GI50 (U-251) | GI50 (NCI-H460) | GI50 (DMS-273) | GI50 (DLD-1) |
| --- | --- | --- | --- | --- | --- | --- | --- | --- | --- | --- | --- | --- | --- | --- | --- | --- | --- | --- | --- | --- |
| CC(N/N=C(\S)N1CCCC1)c1cccnn1 (stereo not given) | 0.444 µM (active) | 0.453 µM (active) | 7.52 µM (inactive) | 0.342 µM (active) | 0.378 µM (active) | 0.906 µM (active) | 1.84 µM (inactive) | 0.335 µM (active) | 0.695 µM (active) | 0.376 µM (active) | 0.312 µM (active) | 0.561 µM (active) | 0.48 µM (active) | 18.5 µM (inactive) | 0.351 µM (active) | 0.308 µM (active) | 0.358 µM (active) | 0.306 µM (active) |  |  |
| CC(C)=CCc1c(O)cc2oc(-c3ccc(O)cc3O)cc(=O)c2c1O | 9.53 µM (inactive) | 31.6 µM (inactive) | 23.8 µM (inactive) | 36.7 µM (inactive) | 27.9 µM (inactive) | 25.4 µM (inactive) | 25.2 µM (inactive) | 25.1 µM (inactive) | 20.2 µM (inactive) | 28.2 µM (inactive) | 33.3 µM (inactive) | 24.6 µM (inactive) | 33.3 µM (inactive) | 17.3 µM (inactive) | 1.95 µM (inactive) | 24.4 µM (inactive) | 32.2 µM (inactive) | 36.6 µM (inactive) |  |  |
| CN(C)C1(C#N)CCC2(CC1)OCCO2 | > 100 µM (inactive) | > 100 µM (inactive) | > 100 µM (inactive) | > 100 µM (inactive) | > 100 µM (inactive) | > 100 µM (inactive) |  | > 100 µM (inactive) | > 100 µM (inactive) | > 100 µM (inactive) | > 100 µM (inactive) | > 100 µM (inactive) |  | > 100 µM (inactive) | > 100 µM (inactive) |  | > 100 µM (inactive) | > 100 µM (inactive) | > 100 µM (inactive) |  |
| Cc1cc(=O)[nH]c2cc(NC(=O)C(CCCNC(=N)N)NC(=O)OCc3ccccc3)ccc12 (stereo not given) | > 100 µM (inactive) | > 100 µM (inactive) | > 100 µM (inactive) | > 100 µM (inactive) | > 100 µM (inactive) | > 100 µM (inactive) | > 100 µM (inactive) | > 100 µM (inactive) | > 100 µM (inactive) | > 100 µM (inactive) | > 100 µM (inactive) | > 100 µM (inactive) | > 100 µM (inactive) | > 100 µM (inactive) | > 100 µM (inactive) | > 100 µM (inactive) | > 100 µM (inactive) | > 100 µM (inactive) |  |  |
| CC/C(Cl)=N\OC(=O)Nc1ccc(F)c([N+](=O)[O-])c1 | 15.6 µM (inactive) | 16.6 µM (inactive) | 18.2 µM (inactive) | 16.6 µM (inactive) | 10.3 µM (inactive) | 17 µM (inactive) | 17.7 µM (inactive) | 7 µM (inactive) | 4.99 µM (inactive) | 2.78 µM (inactive) | 19.6 µM (inactive) | 13.8 µM (inactive) | 26.9 µM (inactive) | 29.4 µM (inactive) | 2.72 µM (inactive) | 8.81 µM (inactive) | 21.5 µM (inactive) | 3.73 µM (inactive) |  |  |
| O=C(Cc1ccc(OCc2cccc(Cl)c2)cc1)NO | 11.7 µM (inactive) | 32.9 µM (inactive) | 25.8 µM (inactive) | 11.7 µM (inactive) | 29.4 µM (inactive) | 21 µM (inactive) | 58.9 µM (inactive) | 24.5 µM (inactive) | 15.3 µM (inactive) | 25 µM (inactive) | 24.6 µM (inactive) | 34 µM (inactive) | 12.2 µM (inactive) | 58.7 µM (inactive) | 2.98 µM (inactive) | 37.8 µM (inactive) | 28.9 µM (inactive) | 23.1 µM (inactive) |  |  |
| COC[C@@H](/N=C/N1CCc2cc(OC)c(OC)cc2[C@@H]1C)C(C)(C)C |  | > 100 µM (inactive) | > 100 µM (inactive) | > 100 µM (inactive) | > 100 µM (inactive) | 86.7 µM (inactive) |  | > 100 µM (inactive) | > 100 µM (inactive) | > 100 µM (inactive) | > 100 µM (inactive) | > 100 µM (inactive) |  |  | > 100 µM (inactive) |  | > 100 µM (inactive) | > 100 µM (inactive) |  | > 100 µM (inactive) |
| CC(=O)OCC(OC(C)=O)C(OC(C)=O)C(OC(C)=O)C(=O)CNn1c(-c2ccccc2Cl)nc2ccc(Br)cc2c1=O (stereo not given) | 82 µM (inactive) | > 100 µM (inactive) | 59.8 µM (inactive) | 76.9 µM (inactive) | > 100 µM (inactive) | > 100 µM (inactive) |  | > 100 µM (inactive) | 87.1 µM (inactive) | > 100 µM (inactive) | > 100 µM (inactive) | > 100 µM (inactive) |  |  | 34.6 µM (inactive) |  | 87.9 µM (inactive) | > 100 µM (inactive) | 56.5 µM (inactive) |  |
| O=C1c2ccccc2C(=O)c2c1ccc1nc3c(nc21)-c1c2ccccc2cc2cccc-3c12 | 19.9 µM (inactive) | > 92.7 µM (inactive) | 19.5 µM (inactive) | 27.4 µM (inactive) | 32.4 µM (inactive) | 68.9 µM (inactive) | 32.6 µM (inactive) | 5.56 µM (inactive) | > 70.1 µM (inactive) | 90.8 µM (inactive) | 26.5 µM (inactive) | 41.6 µM (inactive) | 36.3 µM (inactive) | > 95.3 µM (inactive) | 18.6 µM (inactive) | 17.6 µM (inactive) | 31.3 µM (inactive) | 26.2 µM (inactive) |  |  |
| C[N+]12CCCCC1C(CN1C(=O)Cc3c4ccccc4c(c4ccccc34)CC1=O)CCC2 (stereo not given) | > 100 µM (inactive) | > 100 µM (inactive) | > 100 µM (inactive) | > 100 µM (inactive) | > 100 µM (inactive) | > 100 µM (inactive) | > 100 µM (inactive) | > 100 µM (inactive) | > 100 µM (inactive) | > 100 µM (inactive) | > 100 µM (inactive) | > 100 µM (inactive) | > 100 µM (inactive) | > 100 µM (inactive) | > 100 µM (inactive) | > 100 µM (inactive) | > 100 µM (inactive) | > 100 µM (inactive) |  |  |
| CCC/C(Cl)=N\OC(=O)Nc1ccc(Br)cc1 | 3.89 µM (inactive) | 18.2 µM (inactive) | 13.5 µM (inactive) | 14.6 µM (inactive) | 12 µM (inactive) | 15 µM (inactive) | 13.2 µM (inactive) | 9.48 µM (inactive) | 21.5 µM (inactive) | 2.73 µM (inactive) | 20.9 µM (inactive) | 17.4 µM (inactive) | 8.99 µM (inactive) | 17.3 µM (inactive) | 2.55 µM (inactive) | 6.47 µM (inactive) | 16.4 µM (inactive) | 16.5 µM (inactive) |  |  |
| CC(=O)OC1(C#N)CC2OC1C1NC21 (stereo not given) | > 100 µM (inactive) | > 100 µM (inactive) | > 100 µM (inactive) | > 100 µM (inactive) | > 100 µM (inactive) | > 100 µM (inactive) |  | > 100 µM (inactive) | > 100 µM (inactive) | > 100 µM (inactive) | > 100 µM (inactive) | > 100 µM (inactive) |  | > 100 µM (inactive) | > 100 µM (inactive) |  | > 100 µM (inactive) | > 100 µM (inactive) |  | > 100 µM (inactive) |
| CCc1ccccc1NC(=O)C1=C(C)NC(C)=C(C(=O)Nc2ccccc2CC)C1c1ccc2c(c1)OCO2 | 24.4 µM (inactive) | 32.6 µM (inactive) | 23.7 µM (inactive) | 33.7 µM (inactive) | 26.2 µM (inactive) | 19.2 µM (inactive) |  |  | 23.2 µM (inactive) | 29 µM (inactive) | 17.1 µM (inactive) | 31.5 µM (inactive) |  | 15.1 µM (inactive) | 15.4 µM (inactive) |  | 26.9 µM (inactive) | 34.1 µM (inactive) |  | 22.7 µM (inactive) |
| O=C1C(C(c2ccc([N+](=O)[O-])cc2)N2CCOCC2)=C(O)C(c2ccccc2)N1c1ccccc1 (stereo not given) | > 10 µM (inactive) | > 10 µM (inactive) | 6.14 µM (inactive) | > 10 µM (inactive) | > 10 µM (inactive) | > 10 µM (inactive) | > 10 µM (inactive) | > 10 µM (inactive) | > 10 µM (inactive) | > 10 µM (inactive) | > 10 µM (inactive) | > 10 µM (inactive) | > 10 µM (inactive) | > 10 µM (inactive) | > 10 µM (inactive) | > 10 µM (inactive) | > 10 µM (inactive) | > 10 µM (inactive) |  |  |
| O=C1NC(=O)C2C1N(Cc1ccccc1)C(=O)N2Cc1ccccc1 (stereo not given) | > 100 µM (inactive) | > 100 µM (inactive) | > 100 µM (inactive) |  | > 100 µM (inactive) |  |  | > 100 µM (inactive) | > 100 µM (inactive) | > 100 µM (inactive) | > 100 µM (inactive) | > 100 µM (inactive) |  | > 100 µM (inactive) | > 100 µM (inactive) |  | > 100 µM (inactive) | > 100 µM (inactive) |  | > 100 µM (inactive) |
| O=C(NC1CCC[C@H]1OC(=O)c1ccccc1)c1ccccc1 (stereo not given in full) |  | > 100 µM (inactive) | 10.7 µM (inactive) | > 100 µM (inactive) | > 100 µM (inactive) | > 100 µM (inactive) |  | 81.3 µM (inactive) | 30.8 µM (inactive) |  |  | 31 µM (inactive) |  |  | 30.1 µM (inactive) |  | > 100 µM (inactive) | > 100 µM (inactive) | 95.7 µM (inactive) | 24.4 µM (inactive) |
